From patent US7649002B2, “(3,5-dimethylpiperidin-1yl)(4-phenylpyrrolidin-3-yl)methanone derivatives as MCR4 agonists” (Pfizer Inc, priority 2004, dated 2010)

How the values were obtained:
human MCR4 receptor [1] = target: T1, human MCR4 receptor (Homo sapiens, UniProt P32245); assay: MCR4 standard functional assay (Protocol C): cAMP AlphaScreen in HEK cells; assay type: cell-based; details: Table 5
T1 construct: expressed in transfected cells
Experimental: (§1) Stimulation of adenylate cyclase following receptor activation is a widely used measure of functional activity for a number of receptor systems. The functional assay to measure cyclic AMP (cAMP) utilises human embryonic kidney (HEK) cells that stably express the human melanocortin MCR1, MCR3 or MCR4 receptor. Activation of MCR1, MCR3 or MCR4 receptors stimulates adenylate cyclase, generating cAMP, which is measured using AlphaScreen™ (PerkinElmer assay kits.
(§2) The AlphaScreen™ cAMP assay kit consists of ‘donor beads’, ‘acceptor beads’, and biotinylated cAMP which links the different beads together. Excitation of this linked complex at […] in the Fusion™-α microplate analyser results in light emission between […].
(§3) (i) MCR1. MCR3 and MCR4 Standard Functional Assay Methodology [Assay Protocol A, B AND C Respectively]
(§4) Determination of activity against the human MCR1, MCR3 and MCR4 receptor subtypes was carried out for compounds according to the present invention using three immortalised human embryonic kidney (HEK) cell lines that had been biologically engineered to express the human melanocortin MCR1, MCR3 or MCR4 receptor subtypes. These cell lines were engineered using protocols akin to those outlined by Gouarderes et al (Gouarderes, C., (2002) Neuroscience, 115(2); 349-361).
(§5) Such-compound-induced activation of these MCR1, MCR3 or MCR4 receptors lead to the stimulation of the cellular enzyme adenylate cyclase, which in turn lead to the cellular generation, and intra-cellular accumulation, of cyclic adenosine monophosphate (cAMP). […] Intracellular levels of cAMP were quantified using the commercially available AlphaScreen™ assay kits from PerkinElmer. A detailed assay protocol and an explanation of the concept underlying this kit is available through the PerkinElmer website (www.perkinelmer.com). The protocol listed below provides a summary this information.
(§6) The quantity of intracellular cAMP produced by compound-induced activation of the MCR1, MCR3 and MCR4 receptors in these three cell lines was measured using a Fusion™-α microplate analyser set to stimulate at a wavelength of 680 nm and to measure the energy emitted at wave lengths between […]. Compound-induced increases in MCR1, MCR3 or MCR4 receptor activation were subsequently quantified as a decrease in the quantity of light emitted at wavelengths between […]. Data analysis was subsequently performed using a curve-fitting program and the apparent potency of the test compound (expressed as an EC50 and defined as the effective compound concentration that elicited 50% of the maximum compound-induced response) extrapolated from the fitted curve.
Stimulation buffer (as per AlphaScreen™ protocol): HBSS supplemented with 0.5 mM IBMX, 5 mM HEPES, 0.1% (w/v) BSA and 10 mM MgCl2. […]

human MCR3 receptor = target: T2, human MCR3 receptor (Homo sapiens, UniProt P41968); assay: MCR3 standard functional assay (Protocol B): cAMP AlphaScreen in HEK cells; assay type: cell-based; details: Table 5
T2 construct: expressed in transfected cells
Experimental: as §1, §2, §3, §4, §5, §6
Stimulation buffer (as per AlphaScreen™ protocol): HBSS supplemented with 0.5 mM IBMX, 5 mM HEPES, 0.1% (w/v) BSA and 10 mM MgCl2.
Lysis buffer (as per AlphaScreen™ protocol): 5 mM HEPES solution supplemented with 0.1% (w/v) BSA and 0.3% (v/v) Tween-20.
Detection mix (as per AlphaScreen™ protocol): Lysis buffer supplemented with the biotinylated cAMP (10 nM) and Donor beads (10 μg/ml) as supplied in the AlphaScreenT cAMP assay kit.
For the MCR1, MCR3 and MCR4 standard functional assay methodologies compounds were initially dissolved in DMSO to give a compound concentration of 4 mM and then further diluted for the assay in stimulation buffer to give actual concentrations 2-fold greater than that desired as the final assay concentration.
The three HEK cell lines, as detailed hereinbefore, expressing the human MCR1, MCR3 or MCR4 receptor subtypes were grown in T225 vent cap flasks containing 50 ml of growth medium (DMEM supplemented with 10% (v/v) FCS, 2 mM L-Glutamine, 25 mM HEPES and 1.0 mg/ml Geneticin) and maintained in a cell incubator at a temperature of 37° C. and in an environment containing 5% CO2. Cells were harvested when they reached 80-90% confluency by first removing the existing growth medium and then washing with PBS that had been pre-warmed to a temperature of 37° C. […]

human MCR4 receptor [2] = target: T1, human MCR4 receptor; assay: MCR4 improved functional assay (Protocol E): CHO-K1-MC4R-CRE-β-lactamase reporter; assay type: cell-based
Excerpt: (ii) MCR5 Standard Functional Assay Methodology and MCR4 Improved Functional Assay Methodology [Assay Protocol D and E Respectively] […] These cell lines were engineered using protocols akin to those outlined by Zaccolo et al (Zaccolo, M., (2000) Nature, 2(1); 25-29). Compound-induced activation of the MCR5 or MCR4 receptors in these two cell lines stimulated the production, and intracellular accumulation, of the enzyme β-lactamase. The quantity of β-lactamase enzyme produced was directly proportional to the degree to which the test compound activated the MCR5 or MCR4 receptors present on these cells and was quantified using the P-lactamase gene reporter analysis kit that is commercially available from Invitrogen Life Technologies. An in-depth description of this technology and assay protocols are available from the Invitrogen web site (www.invitrogen.com). The protocol listed below provides a summary of that assay methodology. The quantity of β-lactamase enzyme produced by compound-induced activation of the MCR5 or MCR4 receptors expressed in these cell lines was quantified using a LjI Biosystems Analyst™ HT 96.384 plate reader set to excite at a wave length of 405 nm, and measure the energy emitted at wave lengths of 450 nm and 530 nm. Cellular responses were quantified by dividing the measured energy emitted at a wavelength of 450 nm by the measured energy emitted at a wavelength of 530 nm. […] CCF4-AM was dissolved in 100% DMSO to give a final solution concentration of 1 mM. This solution was termed Solution A. Probenecid was dissolved in 200 mM NaOH to give a final solution concentration of 200 mM. This solution was termed Solution D. Composition of the β-lactamase assay dye solution: for 1072 μL of assay dye solution combine: 12 μL of Solution A, 60 μL of Solution B, 925 μL of Solution C and 75 μL of Solution D. […] Cells were grown in T225 vent cap flasks containing 50 ml of growth medium and maintained in a cell incubator at a temperature of 37° C. and in an environment containing 5% CO2. The composition of the growth medium for the CHO-K1-MC5R-CRE-β-lactamase was 90% v/v DMEM supplemented with; Glutamax-1, 25 mM HEPES, 10% v/v foetal calf serum (FCS), 1 mM sodium pyruvate, 0.1 mM non essential amino acids and 800 μg/ml genetic in. For the CHO-K1-MC4R-CRE-β-lactamase this growth media was further supplemented with […] Zeocin. Cells were harvested when they reached 80-90% confluency by first removing the existing growth medium and then washing with PBS that had been pre-warmed to a temperature of 37° C. This PBS was then removed and 5 ml of cell dissociation fluid added to the flask. These cells were incubated for 5 minutes in a cell incubator set at a temperature of 37° C. and in an environment containing 5% CO2 to detach the cells. When cells were detached, pre-warmed growth media was added, the cells re-suspended and mixed gently to achieve a single cell suspension by pipetting. This cell suspension was then used for experimentation, or transferred into a new T225 flask to perpetuate the cell culture. […] For each assay the cell plates were then retuned to a cell incubator maintained at a temperature of 37° C. and in an environment containing 5% CO2 overnight before performing the assay on the second assay day. […] For the MCR4 improved functional assay methodology the solution of cyclohexamide was not added. Subsequently, 10 μL of the test compound solution was transferred to the assay plate. The assay plate was then transferred to a cell incubator, set at 37° C. and in an environment containing 5% CO2, and left for 4 hours for the MCR4 improved assay methodology, or 5 hours for the MCR5 standard assay methodology. After this incubation period the plate was removed from the incubator, 10 μL of the […] assay dye solution was added to each well and then the plate returned to the cell incubator.

human MCR5 receptor = target: T3, human MCR5 receptor (Homo sapiens, UniProt P33032); assay: MCR5 standard functional assay (Protocol D): CHO-K1-MC5R-CRE-β-lactamase reporter; assay type: cell-based; details: Table 6; for Selectivity MCR5/MCR4: MCR4 by Protocol E; for EC50: Protocol D
T3 construct: expressed in transfected cells
Excerpt: These cell lines were engineered using protocols akin to those outlined by Zaccolo et al (Zaccolo, M., (2000) Nature, 2(1); 25-29). Compound-induced activation of the MCR5 or MCR4 receptors in these two cell lines stimulated the production, and intracellular accumulation, of the enzyme β-lactamase. The quantity of β-lactamase enzyme produced was directly proportional to the degree to which the test compound activated the MCR5 or MCR4 receptors present on these cells and was quantified using the P-lactamase gene reporter analysis kit that is commercially available from Invitrogen Life Technologies. An in-depth description of this technology and assay protocols are available from the Invitrogen web site (www.invitrogen.com). The protocol listed below provides a summary of that assay methodology. The quantity of β-lactamase enzyme produced by compound-induced activation of the MCR5 or MCR4 receptors expressed in these cell lines was quantified using a LjI Biosystems Analyst™ HT 96.384 plate reader set to excite at a wave length of 405 nm, and measure the energy emitted at wave lengths of 450 nm and 530 nm. Cellular responses were quantified by dividing the measured energy emitted at a wavelength of 450 nm by the measured energy emitted at a wavelength of 530 nm. […] CCF4-AM was dissolved in 100% DMSO to give a final solution concentration of 1 mM. This solution was termed Solution A. Probenecid was dissolved in 200 mM NaOH to give a final solution concentration of 200 mM. This solution was termed Solution D. Composition of the β-lactamase assay dye solution: for 1072 μL of assay dye solution combine: 12 μL of Solution A, 60 μL of Solution B, 925 μL of Solution C and 75 μL of Solution D. […] Cells were grown in T225 vent cap flasks containing 50 ml of growth medium and maintained in a cell incubator at a temperature of 37° C. and in an environment containing 5% CO2. The composition of the growth medium for the CHO-K1-MC5R-CRE-β-lactamase was 90% v/v DMEM supplemented with; Glutamax-1, 25 mM HEPES, 10% v/v foetal calf serum (FCS), 1 mM sodium pyruvate, 0.1 mM non essential amino acids and 800 μg/ml genetic in. For the CHO-K1-MC4R-CRE-β-lactamase this growth media was further supplemented with […] Zeocin. Cells were harvested when they reached 80-90% confluency by first removing the existing growth medium and then washing with PBS that had been pre-warmed to a temperature of 37° C. This PBS was then removed and 5 ml of cell dissociation fluid added to the flask. These cells were incubated for 5 minutes in a cell incubator set at a temperature of 37° C. and in an environment containing 5% CO2 to detach the cells. When cells were detached, pre-warmed growth media was added, the cells re-suspended and mixed gently to achieve a single cell suspension by pipetting. This cell suspension was then used for experimentation, or transferred into a new T225 flask to perpetuate the cell culture. On the first day of the assay cells were harvested as described above. […] For each assay the cell plates were then retuned to a cell incubator maintained at a temperature of 37° C. and in an environment containing 5% CO2 overnight before performing the assay on the second assay day. […] For the MCR4 improved functional assay methodology the solution of cyclohexamide was not added. Subsequently, 10 μL of the test compound solution was transferred to the assay plate. […] After this incubation period the plate was removed from the incubator, 10 μL of the […] assay dye solution was added to each well and then the plate returned to the cell incubator.

[3] = tested on: men with psychogenic and organic ED; details: cited from earlier work

T1 sequence (P32245 whole entry): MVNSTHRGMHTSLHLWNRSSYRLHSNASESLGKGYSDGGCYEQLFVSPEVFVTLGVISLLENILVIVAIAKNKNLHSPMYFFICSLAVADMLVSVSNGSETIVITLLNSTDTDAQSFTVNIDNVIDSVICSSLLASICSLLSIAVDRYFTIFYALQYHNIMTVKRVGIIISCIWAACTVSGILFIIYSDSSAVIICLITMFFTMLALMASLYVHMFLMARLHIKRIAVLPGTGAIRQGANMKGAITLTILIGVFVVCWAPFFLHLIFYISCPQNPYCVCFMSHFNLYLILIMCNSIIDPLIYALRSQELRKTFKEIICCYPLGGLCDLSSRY
T3 sequence (P33032 whole entry): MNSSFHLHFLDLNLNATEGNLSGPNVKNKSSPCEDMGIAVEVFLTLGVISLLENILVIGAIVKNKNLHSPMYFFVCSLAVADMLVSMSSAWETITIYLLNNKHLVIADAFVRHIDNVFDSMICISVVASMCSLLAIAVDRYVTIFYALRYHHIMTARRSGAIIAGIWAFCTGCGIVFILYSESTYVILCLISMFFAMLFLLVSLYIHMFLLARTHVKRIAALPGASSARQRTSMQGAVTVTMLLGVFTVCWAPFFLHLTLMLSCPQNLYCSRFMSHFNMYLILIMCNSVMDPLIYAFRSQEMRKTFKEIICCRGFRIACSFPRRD
T2 sequence (P41968 whole entry): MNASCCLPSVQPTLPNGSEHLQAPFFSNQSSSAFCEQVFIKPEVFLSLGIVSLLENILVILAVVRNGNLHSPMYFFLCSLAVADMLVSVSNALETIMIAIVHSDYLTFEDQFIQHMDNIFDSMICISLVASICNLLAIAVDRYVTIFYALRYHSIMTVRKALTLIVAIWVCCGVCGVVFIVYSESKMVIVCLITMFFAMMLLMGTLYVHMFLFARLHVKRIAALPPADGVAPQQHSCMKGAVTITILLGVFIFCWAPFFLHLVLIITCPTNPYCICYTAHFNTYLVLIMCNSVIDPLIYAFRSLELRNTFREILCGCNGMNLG

With CCN1C[C@@H](C(=O)N2C[C@@H](C)[C@](O)(C3CCCCC3)[C@@H](C)C2)[C@H](c2ccc(F)cc2F)C1 (relative stereo) [Example 2, (3R,4R,5S)-4-Cyclohexyl-1-{[(3S*,4R*)4-(2,4-difluorophenyl)-1-ethylpyrrolidin-3-yl]carbonyl}-3,5-dimethylpiperidin-4-ol] the EC50 (human MCR4 receptor [1]) was 68 nM, the “Selectivity MCR3/MCR4” value (human MCR3 receptor; MCR4 by Protocol C) was 123 and the EC50 (human MCR3 receptor; Protocol B) was 8.38 µM.
Work on Cc1ccc([C@@]2(O)[C@H](C)CN(C(=O)[C@@H]3CN(C(C)(C)C)C[C@H]3c3ccc(F)cc3F)C[C@@H]2C)cc1 [Example 4, (3R,4R,5S)-1-{[(3S,4R)-1-tert-Butyl-4-(24-difluorophenyl)pyrrolidin-3-yl]carbonyl}-3,5-dimethyl-4-(4-methylphenyl)piperidin-4-ol] yielded an EC50 (human MCR4 receptor [1]) of 45 nM.
With C[C@@H]1CN(C(=O)[C@@H]2CN(C(C)(C)C)C[C@H]2c2ccc(F)cc2F)C[C@H](C)[C@@]1(O)c1ccc(F)cc1F.Cl [Example 15, (3R,4R,5S)-1-{[(3S,4R)-1-tert-butyl-4-(2,4-difluorophenyl)pyrrolidin-3-yl]carbonyl}-4-(2,4-difluorophenyl)-3,5-dimethylpiperidin-4-ol hydrochloride] the EC50 (human MCR4 receptor [2]; MCR4 EC50 (nM), Table 6) was 6.3 nM, the EC50 (human MCR4 receptor [2]; functional potency at the MC4 receptor (EC50), Protocols C or E) was under 50 nM and the “Selectivity MCR5/MCR4” value (human MCR5 receptor) was 556. The EC50 (human MCR5 receptor) was 3.5 µM.
With C[C@@H]1CN(C(=O)[C@@H]2CN(C(C)(C)C)C[C@H]2c2ccc(F)cc2F)C[C@H](C)[C@@]1(O)c1ccccn1.Cl [Example 22, (3R,4R,5S)-1-[(3S,4R)-1-tert-Butyl-4-(2,4-difluorophenyl)pyrrolidin-3-yl]carbonyl-3,5-dimethyl-4-pyridin-2-ylpiperidin-4-ol hydrochloride] the EC50 (human MCR4 receptor [2]; Protocols C or E, read-out: functional potency at the MC4 receptor (EC50)) was under 50 nM, the EC50 (human MCR4 receptor [2]; Table 6, read-out: MCR4 EC50) was 23 nM and the “Selectivity MCR5/MCR4” value (human MCR5 receptor) was 772. For the same compound, the EC50 (human MCR5 receptor) was 17.8 µM.
In the case of Melanotan II, the “doses after which increased sexual desire was reported” value ([3]; 13/19 doses, vs placebo P<0.01) is listed as 68%, the “subjects with severe nausea” value ([3]; dose of 0.025 mg/kg) is listed as 12.9% and the “men with penile erection” value ([3]; in the absence of sexual stimulation, 20 men with psychogenic and organic ED) is listed as 17 of 20. For the same compound, the “mean duration of Rigiscan tip rigidity>80%” value ([3]; men with ED, monitored 6 hours) was 41 min.
